Results from the NIST ThermoML archive (doi:10.1021/je900164a).

Assay: xn = mol fraction of the nth substance listed
Conditions: 101 kPa, Liquid, Vibrating tube method

CNC(=O)NC [1,3-dimethylurea] + O
mass density [kg/m3]
Conditions | 280.15 K | 281.15 K | 282.15 K | 283.15 K | 288.15 K | 298.15 K | 308.15 K
x1 = 0.000898 | – | 1000.29 | 1000.22 | 1000.13 | 999.526 | 997.452 | 994.42
x1 = 0.0018 | – | 1000.73 | 1000.65 | 1000.57 | 999.93 | 997.853 | 994.802
x1 = 0.00448 | – | 1002.06 | 1001.98 | 1001.88 | 1001.23 | 999.058 | 995.947
x1 = 0.00893 | – | 1004.34 | 1004.22 | 1004.12 | 1003.35 | 1001.08 | 997.861
x1 = 0.01771 | – | 1008.91 | 1008.75 | 1008.6 | 1007.67 | 1005.1 | 1001.7
x1 = 0.02461 | – | 1012.56 | 1012.36 | 1012.17 | 1011.04 | 1008.24 | 1004.63
x1 = 0.03141 | – | 1016 | 1015.77 | 1015.58 | 1014.35 | 1011.28 | 1007.43
x1 = 0.03815 | – | 1019.47 | 1019.19 | 1019.01 | 1017.55 | 1014.24 | 1010.16
x1 = 0.04471 | 1023.02 | 1022.79 | 1022.47 | 1022.23 | 1020.59 | 1017.04 | 1012.76
x1 = 0.05126 | 1026.26 | 1025.97 | 1025.61 | 1025.27 | 1023.54 | 1019.75 | 1015.27
x1 = 0.06722 | 1033.52 | 1033.21 | 1032.76 | 1032.44 | 1030.34 | 1025.98 | 1021.16
x1 = 0.08246 | 1040.01 | 1039.61 | 1039.05 | 1038.58 | 1036.44 | 1031.41 | 1026.06
x1 = 0.09755 | 1045.78 | 1045.39 | 1044.75 | 1044.35 | 1041.6 | 1036.31 | 1030.33
